The values below come from patent US12285490B2, “ASH1L degraders and methods of treatment therewith” (The Regents of the University of Michigan, priority 2017, dated 2025).

One assay has as its target T1, ASH1L (Homo sapiens, UniProt Q9NR48).
T1 construct: endogenous in cells; host or cells: HeLa cells
Kind of assay: Western blot of ASH1L degradation in HeLa cells. Type of assay: cell-based. How it is done: The 2.5×10^5 HeLa cells were treated with compounds for 24 h followed by the lysis in the RIPA buffer. The protein samples were loaded and run in the 3-8% Tris-acetate gel. After transferring proteins to the PVDF membrane, 5% bovine serum albumin solution was used for blocking for 2 h at room temperature. The membranes were incubated with the ASH1L-specific antibody (Bethyl A301-749A) at 4° C. overnight and subsequently with the anti-rabbit secondary antibody (Cell signaling technology, 7074S). The blots were detected by an ECL detection system (Amersham, RPN2236).

A further assay has as its system MV4:11. Kind of assay: Cell viability assay (MTT) in MV4:11 cells. The class given is cell-based. As to conditions: Homo sapiens, 168 h; MV4:11, after 7 days of treatment. How it is done: (§1) Human leukemia cells were plated at 1×10^5 cells/ml in 24-well plates, treated with 0.25% DMSO or compounds and cultured at 37° C. for 7-14 days. Every four days, the volume corresponding to 1×10^5 cells of DMSO-treated cells was spun down and resuspended in fresh media with fresh compound. At day 0 and each four day interval, 100 μl aliquots of the cell suspension were transferred to 96-well plates in quadruplicates. The quadruplicate samples were incubated for 3-4 days at 37° C., and then an MTI cell proliferation assay kit (Roche) was used to measure viable cells. Absorbance was read at 570 nm using a PHERAstar (BMG) microplate reader.

In assay [1] the test system is MV4:11 xenotransplantation model. Kind of assay: In vivo efficacy in MV4:11 xenotransplantation model. As to conditions: MV4:11 xenotransplantation model in mice, 25 mg/kg, i.p., q.d., 17 days of treatment. An excerpt:
Exemplary compounds disclosed herein, were used for in vivo studies in mice. Immunocompromised 8-10 week-old female NSG mice were used for in vivo efficacy studies in accordance with IACUC guidelines. Luciferase expressing human MV4:11 leukemia cells (MV4:11-luc) were engrafted intravenously via tail vein injection (1×10^7 cells/animal). Five days after transplantation mice were randomly assigned to a vehicle control or a compound treatment group (6-7 animals per group). Animals in each of the treatment groups were administered vehicle or compound A of the present disclosure by intraperitoneal (i.p.) injection. Treatment was continued for 17 days. Body weight was measured daily, while mean luminescence signal was measured in all mice at days 10 and 17 after initiating the treatment. […]

The subject of assay [2] is MLL fusion protein target genes in MOLM13 leukemia cell line. As to the kind of experiment: Quantitative RT-PCR gene expression in MOLM13 cells. The class given is cell-based, human. The settings on record: after 6 days of treatment at 150 nM. The method, then:
(§2) Total RNA was extracted from cells using the RNeasy mini kit (QIAGEN), and then 100-2000 ng of total RNA was reverse transcribed using the High Capacity cDNA Reverse Transcription Kit (Applied Biosystems) according to the manufacturer's protocol. Real-time PCR was performed using a CFX96 Real-Time PCR Detection System (Biorad). TaqMan Gene Expression Master Mix and TaqMan Gene Expression Assays were purchased from Thermo Fisher. Relative quantification of each gene transcript was carried out using the ΔΔCt method as described in the Biorad Real-Time PCR Applications Guide.

For another assay, the system named is KOPN8. Kind of assay: Cell viability assay (MTT) in KOPN8 cells. Type of assay: cell-based. As to conditions: Homo sapiens, KOPN-8, 168 h; KOPN8, after 7 days of treatment. The method, then: as §1
The next assay relates to K562 control cell line. As to the kind of experiment: Cell viability assay (MTT) in K562 control cell line. The class given is cell-based. As to conditions: Homo sapiens, 168 h, after 7 days of treatment. The method, then:
as §1

In the next assay the test system is MOLM13. Kind of assay: Cell viability assay (MTT) in MOLM13 cells. The settings on record: Homo sapiens, MOLM-13, 168 h; MOLM13, after 7 days of treatment. The class given is cell-based. The method, then: as §1
Assay [3] relates to acute leukemia cell lines. As to the kind of experiment: Cell viability / proliferation in various acute leukemia cell lines. Type of assay: cell-based, human. As to conditions: after 7 days of treatment. The method, then: as §1
Assay [4] has as its system acute leukemia cell lines. Kind of assay: Differentiation of leukemia cells (Cytospin/Wright-Giemsa staining). Type of assay: cell-based, human. As to conditions: after 7 days of treatment. The method, then: 1×10^5 of leukemia cells treated with compounds or DMSO were harvested and placed in a Shandon EZ Single Cytofunnel (Thermo Fisher). Samples were centrifuged at 600 rpm for 5 min. The slides were air dried before staining with a Hema-3 kit (Thermo Fisher).

Assay [5] has as its system MLL fusion target genes in MV4:11 MLL leukemia cell line. As to the kind of experiment: Quantitative RT-PCR gene expression in MV4:11 cells. As to conditions: after 7 days of treatment. Type of assay: cell-based, human. How it is done: as §2

On to `NC(=S)c1cccc(-c2cn(C3CCC(F)(F)CC3)c3cc(NC(=O)CCCCCCCCNC(=O)COc4cccc5c4C(=O)N(C4CCC(=O)NC4=O)C5=O)ccc23)c1` (stereo not drawn) [Compound 24, N-(3-(3-carbamothioylphenyl)-1-(4,4-difluorocyclohexyl)-1H-indol-6-yl)-9-(2-((2-(2,6-dioxopiperidin-3-yl)-1,3-dioxoisoindolin-4-yl)oxy)acetamido)nonanamide], for which the “Degradation of ASH1L” value on ASH1L (HeLa cells, after 24 h of treatment, FIG. 4 Panel A) is “induces degradation of ASH1L”. For the same compound, the GI50 with MV4:11 is 62 nM; in the assay on KOPN8 it was 103 nM; in the assay on K562 control cell line, over 6000 nM; with MOLM13 it was 52 nM. Moreover, the “Leukemia progression in vivo (bioluminescence signal, hCD45+ cells)” value in assay [1] is given as “blocks leukemia progression”. Also, the “Expression of MLL fusion protein target genes” value in [2] is “downregulates the expression of MLL fusion protein target genes”. Further, in assay [3], the “Cell proliferation / viability” value is “inhibits viability”.
Consider `NC(=S)c1cccc(-c2cn(CC(CF)CF)c3cc(NC(=O)CCOCCOCCOCCOc4cccc5c4C(=O)N(C4CCC(=O)NC4=O)C5=O)ccc23)c1` (stereo not drawn) [Compound 1, N-(3-(3-carbamothioylphenyl)-1-(3-fluoro-2-(fluoromethyl)propyl)-1H-indol-6-yl)-3-(2-(2-(2-((2-(2,6-dioxopiperidin-3-yl)-1,3-dioxoisoindolin-4-yl)oxy)ethoxy)ethoxy)ethoxy)propanamide], for which the “Degradation of ASH1L” value at ASH1L (FIG. 1, Western blot) was “Degradation of Ash1L induced”. Further, the Differentiation entry in assay [4] is listed as “induces differentiation”. Also, the “Expression of MLL fusion target genes” value in assay [5] is listed as “downregulates expression of MLL fusion target genes”. Also, the “Cell proliferation / viability” value in assay [3] is “selectively blocks proliferation”.
